From patent publication US20260085058A1, “DEGRADERS OF SON OF SEVENLESS HOMOLOG 1” (H. LEE MOFFITT CANCER CENTER AND RESEARCH INSTITUTE, INC., priority 2022, published 2026)

Target: T1, SOS1 (Homo sapiens, UniProt Q07889)
T1 sequence (Q07889 1-1333): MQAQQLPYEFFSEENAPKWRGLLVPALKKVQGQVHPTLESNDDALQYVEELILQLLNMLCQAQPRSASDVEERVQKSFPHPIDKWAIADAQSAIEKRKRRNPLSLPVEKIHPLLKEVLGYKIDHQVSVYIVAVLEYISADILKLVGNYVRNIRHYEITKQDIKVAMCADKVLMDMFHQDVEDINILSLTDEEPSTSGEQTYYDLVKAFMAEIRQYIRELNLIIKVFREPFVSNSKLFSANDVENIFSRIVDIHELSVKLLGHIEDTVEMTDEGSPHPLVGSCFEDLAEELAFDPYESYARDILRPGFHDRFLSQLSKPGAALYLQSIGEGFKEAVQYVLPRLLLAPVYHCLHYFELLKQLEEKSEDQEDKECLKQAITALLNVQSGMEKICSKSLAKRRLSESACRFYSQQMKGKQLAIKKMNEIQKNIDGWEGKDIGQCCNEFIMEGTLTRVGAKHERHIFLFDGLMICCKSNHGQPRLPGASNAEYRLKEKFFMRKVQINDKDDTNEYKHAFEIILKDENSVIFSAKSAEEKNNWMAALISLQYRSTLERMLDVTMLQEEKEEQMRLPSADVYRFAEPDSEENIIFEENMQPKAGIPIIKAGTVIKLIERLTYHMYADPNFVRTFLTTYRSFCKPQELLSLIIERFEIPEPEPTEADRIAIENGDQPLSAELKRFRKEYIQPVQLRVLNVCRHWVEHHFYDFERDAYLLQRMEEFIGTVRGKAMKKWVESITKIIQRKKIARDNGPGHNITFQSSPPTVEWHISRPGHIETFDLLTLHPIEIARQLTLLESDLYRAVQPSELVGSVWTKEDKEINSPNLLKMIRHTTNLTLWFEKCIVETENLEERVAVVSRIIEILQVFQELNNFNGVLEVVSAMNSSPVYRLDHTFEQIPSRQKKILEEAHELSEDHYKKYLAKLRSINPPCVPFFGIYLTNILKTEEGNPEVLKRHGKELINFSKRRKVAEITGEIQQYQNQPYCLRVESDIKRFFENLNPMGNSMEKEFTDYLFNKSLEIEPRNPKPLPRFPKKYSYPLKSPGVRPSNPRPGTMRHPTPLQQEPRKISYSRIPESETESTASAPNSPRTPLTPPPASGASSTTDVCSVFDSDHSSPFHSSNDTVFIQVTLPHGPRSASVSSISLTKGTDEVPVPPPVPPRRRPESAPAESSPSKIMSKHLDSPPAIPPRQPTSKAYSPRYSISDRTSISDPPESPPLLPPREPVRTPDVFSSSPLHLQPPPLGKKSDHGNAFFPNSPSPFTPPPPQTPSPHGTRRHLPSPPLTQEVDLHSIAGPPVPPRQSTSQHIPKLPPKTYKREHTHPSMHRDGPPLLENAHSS
Assay: SOS1 degradation by immunoblot in colorectal cancer cell lines
Assay type: cell-based
Set-up: endogenous in cells; host or cells: SW620, HCT116, C2BB, SW1417
Conditions: SW620 cells, 1 μM, different time points
Experimental: SW620, HCT116, C2BB, and SW1417 were purchased from the American Type Culture Collection. […] They were incubated under a 5% (v/v) CO2 atmosphere at 37° C.
Cells were plated in a 100 mm dish for incubation overnight before harvest for immunoblot. For drug treatment, cell confluency was checked prior to proceeding with the treatment. […] Approximately 40 μg protein samples were loaded into each well and separated by SDS-PAGE gel. After protein transfer onto nitrocellulose membranes, 5% skim milk in TBST was used to block the membranes for 1 hour at room temperature prior to incubation with primary antibodies overnight at 4° C. At the completion, a horseradish peroxidase-conjugated secondary antibody was applied at room temperature for 1 hour. The bands were visualized using Western Lightning Plus-ECL (PerkinElmer).

**Q.** How did the “Time-dependent SOS1 degradation” value turn out when `COc1cc2c(N[C@H](C)c3cc(N)cc(C(F)(F)F)c3)nc(C)nc2cc1OCc1cccc2c1C(=O)N(C1CCC(=O)NC1=O)C2=O` (stereo partly drawn) [P2, 4-(((4-(((R)-1-(3-amino-S-(trifluoromethyl)phenyl)ethyl)amino)-6-methoxy-2-methylquinazolin-7-yl)oxy)methyl)-2-(2,6-dioxopiperidin-3-yl)isoindoline-1,3-dione] was run?
**A.** not observed
